# Experimental data from patent publication US9745246B2, “Method for preparing a salt of acetylsalicylic acid and a basic amino acid” (UNITHER PHARMACEUTICALS, priority 2014, dated 2017).
# Legend:
# [1] = Stability study, Experiment 1: dry product stored at 5° C. under inert atmosphere in the dark for 3 months; assay type: physicochemical; conditions: storage 5° C.; for Stability over time: 3 months
# Description: (§1) The analysis by HPLC is carried out according to the method of the European Pharmacopeia 2.2.29, as indicated below.
# (§2) Residual moisture content: halogen loss on desiccation in a desiccator 5 g/90° C./20 min.
# (§3) Water content: according to European Pharmacopeia 2.5.12, titration carried out by Karl Fisher titration on 1 g of ASL.
# (§4) according to European Pharmacopeia 2.2.3, a solution is reconstituted by dissolving 1 g of ASL in 10 ml of water free of carbon dioxide, with stirring for 30 s. Its appearance is evaluated and its pH is measured.
# (§5) Content of each unknown impurity: by HPLC assay, according to the operating protocol described above. The content of each impurity is determined by means of the following equation: […]
# A study of stability of the product obtained in example 1 is carried out by storing the dry product under an inert atmosphere and in the dark, at a temperature of 5° C., for a period of 3 months.
# At times T=0, T=1 month and T=3 months, a sample of product is taken and subjected to all the tests described in example 2.
# By way of comparative example, the same experiment is carried out on a product obtained by means of the preparation process of the prior art described in document WO 2011/039432, providing in particular a molar deficiency in DL-lysine (more specifically, with an acetylsalicylic acid/DL lysine molar ratio equal to 1/0.89).
# [2] = Stability study, Experiment 2: dry product (new synthesis batch) stored at 5° C. under inert atmosphere in the dark for 6 months; assay type: physicochemical; parameters: key to Appearance of the powder / Appearance of the reconstituted solution: C = complies; conditions: storage 5° C.
# Description: as §1, §2, §3, §4, §5
# A study of stability of the product obtained in example 1 (new synthesis batch) is carried out by storing the dry product under an inert atmosphere and in the dark, at a temperature of 5° C., for a period of 6 months.
# At times T=0, T=1 month, T=3 months and T=6 months, a sample of product is taken and subjected to all the tests described in example 2.
# [3] = time 0 months, listed as Method in accordance with the invention
# [4] = time 1 month, listed as Method in accordance with the invention
# [5] = time 3 months, listed as Method in accordance with the invention
substance,measurement,setting,value
"DL-lysine acetylsalicylate [Process of WO 2011/039432, reference compound]",Stability over time,[1]; listed as product obtained by means of a process of the prior art,much less stability over time
same,HPLC content of acetylsalicylic acid (%),[1]; time 0 months,93.6%
same,Impurities (%): Salicylic acid,[1]; time 0 months,1.9%
same,Residual moisture content (%),[1]; time 0 months,0.72%
same,pH of the reconstituted solution,[1]; time 0 months,5.2
same,HPLC content of acetylsalicylic acid (%),[1]; time 1 month,90.0%
same,Impurities (%): Other unknown impurity,[1]; time 1 month,0.026%
same,Impurities (%): Salicylic acid,[1]; time 1 month,1.9%
same,Impurities (%): Sum of the impurities,[1]; time 1 month,0.09%
same,Residual moisture content (%),[1]; time 1 month,0.61%
same,pH of the reconstituted solution,[1]; time 1 month,5.2
same,HPLC content of acetylsalicylic acid (%),[1]; time 3 months,91.6%
same,Impurities (%): Other unknown impurity,[1]; time 3 months,0.027%
same,Impurities (%): Salicylic acid,[1]; time 3 months,2.0%
same,Impurities (%): Sum of the impurities,[1]; time 3 months,0.07%
same,Residual moisture content (%),[1]; time 3 months,0.61%
same,pH of the reconstituted solution,[1]; time 3 months,5.1
DL-lysine acetylsalicylate [ASL],Stability over time,[2]; 6 months,remains stable over time
same,Appearance of the powder,[2]; time 0 months,C
same,Appearance of the reconstituted solution,[2]; time 0 months,C
same,HPLC content of acetylsalicylic acid (%),[2]; time 0 months,97.5%
same,Impurities (%): Other unknown impurity,[2]; time 0 months,0.03%
same,Impurities (%): Salicylic acid,[2]; time 0 months,0.28%
same,Impurities (%): Sum of the impurities,[2]; time 0 months,0.32%
same,Residual moisture content (%),[2]; time 0 months,0.7%
same,Water content (%),[2]; time 0 months,0.4%
same,pH of the reconstituted solution,[2]; time 0 months,5.7
same,Appearance of the powder,[2]; time 1 month,C
same,Appearance of the reconstituted solution,[2]; time 1 month,C
same,HPLC content of acetylsalicylic acid (%),[2]; time 1 month,97.5%
same,Impurities (%): Other unknown impurity,[2]; time 1 month,0.03%
same,Impurities (%): Salicylic acid,[2]; time 1 month,0.28%
same,Impurities (%): Sum of the impurities,[2]; time 1 month,0.33%
same,Residual moisture content (%),[2]; time 1 month,0.5%
same,Water content (%),[2]; time 1 month,0.3%
same,pH of the reconstituted solution,[2]; time 1 month,5.8
same,Appearance of the powder,[2]; time 3 months,C
same,Appearance of the reconstituted solution,[2]; time 3 months,C
same,HPLC content of acetylsalicylic acid (%),[2]; time 3 months,98.1%
same,Impurities (%): Other unknown impurity,[2]; time 3 months,0.03%
same,Impurities (%): Salicylic acid,[2]; time 3 months,0.29%
same,Impurities (%): Sum of the impurities,[2]; time 3 months,0.33%
same,Residual moisture content (%),[2]; time 3 months,0.6%
same,Water content (%),[2]; time 3 months,0.3%
same,pH of the reconstituted solution,[2]; time 3 months,5.4
same,Appearance of the powder,[2]; time 6 months,C
same,Appearance of the reconstituted solution,[2]; time 6 months,C
same,HPLC content of acetylsalicylic acid (%),[2]; time 6 months,97.5%
same,Impurities (%): Other unknown impurity,[2]; time 6 months,0.03%
same,Impurities (%): Salicylic acid,[2]; time 6 months,0.30%
same,Impurities (%): Sum of the impurities,[2]; time 6 months,0.34%
same,Residual moisture content (%),[2]; time 6 months,0.6%
same,Water content (%),[2]; time 6 months,0.3%
same,pH of the reconstituted solution,[2]; time 6 months,6.3
same,Stability over time,[1]; listed as product obtained by means of the method in accordance with the invention of exam,remains stable over time
same,Impurities (%): Other unknown impurity,[1]; time 0 months,0.02%
same,Impurities (%): Sum of the impurities,[1]; time 0 months,0.15%
same,Water content (%),[1]; time 0 months,0.4%
same,HPLC content of acetylsalicylic acid (%),[1]; [3],98.3%
same,Impurities (%): Salicylic acid,[1]; [3],0.13%
same,Residual moisture content (%),[1]; [3],0.4%
same,pH of the reconstituted solution,[1]; [3],5.9
same,Water content (%),[1]; time 1 month,0.5%
same,HPLC content of acetylsalicylic acid (%),[1]; [4],98.5%
same,Impurities (%): Other unknown impurity,[1]; [4],0.02%
same,Impurities (%): Salicylic acid,[1]; [4],0.17%
same,Impurities (%): Sum of the impurities,[1]; [4],0.22%
same,Residual moisture content (%),[1]; [4],0.6%
same,pH of the reconstituted solution,[1]; [4],5.6
same,Water content (%),[1]; time 3 months,0.3%
same,HPLC content of acetylsalicylic acid (%),[1]; [5],98.8%
same,Impurities (%): Other unknown impurity,[1]; [5],0.02%
same,Impurities (%): Salicylic acid,[1]; [5],0.21%
same,Impurities (%): Sum of the impurities,[1]; [5],0.25%
same,Residual moisture content (%),[1]; [5],0.6%
same,pH of the reconstituted solution,[1]; [5],5.5
